# Assay results from patent US9598441B2, “Therapeutic compounds and methods” (Wayne State University, priority 2011, dated 2017).
# Molecular target: T1, endogenous interaction between CARP-1 and APC-2 in MDA-MB-468 HBC cells (Homo sapiens, UniProt Q8IX12)
# T1 construct: endogenous in cells; host or cells: MDA-MB-468 human breast cancer cells
# T1 sequence (Q8IX12 1-1150): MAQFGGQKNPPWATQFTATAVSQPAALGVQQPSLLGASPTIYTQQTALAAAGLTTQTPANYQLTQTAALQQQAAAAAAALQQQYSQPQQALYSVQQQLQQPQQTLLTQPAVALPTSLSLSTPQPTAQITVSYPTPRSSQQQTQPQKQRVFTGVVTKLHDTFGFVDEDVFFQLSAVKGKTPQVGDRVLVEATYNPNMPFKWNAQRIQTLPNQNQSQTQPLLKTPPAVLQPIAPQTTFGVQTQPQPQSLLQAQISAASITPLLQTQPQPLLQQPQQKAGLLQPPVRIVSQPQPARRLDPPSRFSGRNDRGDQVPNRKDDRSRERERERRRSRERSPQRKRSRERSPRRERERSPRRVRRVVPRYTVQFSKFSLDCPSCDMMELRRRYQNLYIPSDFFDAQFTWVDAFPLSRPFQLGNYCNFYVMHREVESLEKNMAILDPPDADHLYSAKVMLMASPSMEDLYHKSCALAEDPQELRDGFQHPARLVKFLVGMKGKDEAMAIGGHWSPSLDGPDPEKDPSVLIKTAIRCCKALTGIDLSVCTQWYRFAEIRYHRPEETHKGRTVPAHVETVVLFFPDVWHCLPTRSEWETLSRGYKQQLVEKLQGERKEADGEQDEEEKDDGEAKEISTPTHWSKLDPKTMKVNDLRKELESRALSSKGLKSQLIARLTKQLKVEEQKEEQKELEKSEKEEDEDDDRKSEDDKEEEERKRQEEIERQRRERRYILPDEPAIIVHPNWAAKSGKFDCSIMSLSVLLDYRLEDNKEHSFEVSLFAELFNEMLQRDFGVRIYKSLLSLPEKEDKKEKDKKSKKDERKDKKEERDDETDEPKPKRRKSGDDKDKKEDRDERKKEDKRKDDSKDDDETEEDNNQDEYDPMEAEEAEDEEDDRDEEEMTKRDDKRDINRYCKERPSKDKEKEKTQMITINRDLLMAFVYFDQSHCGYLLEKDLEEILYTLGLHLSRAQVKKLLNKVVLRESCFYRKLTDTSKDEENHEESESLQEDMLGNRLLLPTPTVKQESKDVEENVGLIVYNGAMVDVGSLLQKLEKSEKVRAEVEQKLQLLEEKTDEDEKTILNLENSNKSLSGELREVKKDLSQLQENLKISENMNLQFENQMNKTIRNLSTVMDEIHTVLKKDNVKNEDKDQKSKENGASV
# Assay: IP-WB of endogenous CARP-1/APC-2 interaction in treated cells
# Type: cell-based
# Conditions: escalating doses, 12 h
# Protocol: FIGS. 2A-2D: Identification of small molecular antagonists of CARP-1 binding with APC-2. 2A, FP assay for CARP-1-APC-2 binding. Increasing concentrations of fluorescein-tagged A-epitope peptide [CARP-1 (951-980)] were incubated with the indicated quantities of the Gst-APC-2(685-754) proteins in assay buffer containing 0.01% triton-X100. Gst-NEMO (221-317) was included as a negative control. mP, millipolarization units. 2B, chemical structures of inhibitors of CARP-1 binding with APC-2 identified from HTS. CFM, CARP-1 Functional Mimetic; CFM-1, (Z)-5-(5-bromo-7-methyl-2-oxoindolin-3-ylidene)-2-thioxothiazolidin-4-one; CFM-4,1-(2-chlorobenzyl)-5′-phenyl-3′H-spiro[indoline-3,2′-[1,3,4]thiadiazol]-2-one; CFM-5,5-bromo-1-phenethyl-5′-phenyl-3′H-spiro[indoline-3,2′-[1,3,4]thiadiazol]-2-one. 2C, CFM-4 and CFM-5 bind CARP-1. […] The complexes were analyzed by SDS-PAGE followed by WB with the noted antibodies. […] Immunoprecipitates or the respective cell lysates were analyzed by WB with noted antibodies as in FIG. 1A. […]
# Logarithmically growing cells were either untreated or treated with different agents for various time periods. […] The cell growth inhibition was assessed by using MTT assay. […] The assessment of the live cells was derived by measuring the absorbance of the converted dye at wavelength of 570 nm. […]
compound,measurement,value
"O=C1N(Cc2ccccc2Cl)c2ccccc2C12NN=C(c1ccccc1)S2 (stereo not shown) [CFM-4, 1-(2-chlorobenzyl)-5′-phenyl-3′H-spiro[indoline-3,2′-[1,3,4]thiadiazol]-2-one]",Binding of CARP-1 with APC-2 in cells (IP-WB),declined in the presence of CFM-4 in a dose-dependent manner
